Measured values taken from patent US11998610B2, “Conjugates and methods of using the same” (Flagship Pioneering Innovations V, Inc., priority 2018, dated 2024).
Non-standard residues stand in square brackets, D forms with d. Residues, ends and D or L forms follow the SMILES beside them. *: point of attachment. Myristoyl = CCCCCCCCCCCCCC(=O)*; Octanoyl = CCCCCCCC(=O)*

What was measured:
[1] = test system: E. coli CFT073 ATCC 700928 and/or E. coli Nissle 1917; assay: Cell-based assay with ClbP with LCMS, ClbP positive strain; settings: for % Remaining in ClbP Positve Relative to Media-Only: ClbP-encoding E. coli, 10 μM compound, 37° C., 20 h; for Difference between the ClbP Positive and ClbP Negative release profiles: conclusion from Table 4
Outline: (§1)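 Compound (10 μM final) incubated 20 h at 37° C, aerobically, with 1:40-diluted overnight cultures of ClbP-positive E. coli or negative BL21(DE3), in duplicate, alongside uninoculated LB. Remaining parent quantified by LC-MS/MS (MRM) after acetonitrile quench, expressed as percent of media-alone.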

[2] = Stability of conjugates in Simulated Gastric Fluid (SGF); type: in vitro ADME; settings: simulated gastric fluid pH 1.6 with pepsin, 1 μM, 37° C.
Outline: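 Compounds at 1 μM (from 1 mM DMSO stock) were incubated at 37°C in simulated gastric fluid, NaCl pH 1.6 with FaSSIF powder and 0.1 mg/mL pepsin. Aliquots taken at T0 and regular intervals were quenched with an equal volume of acetonitrile and analysed by LC/MS for degradation rate.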

[3] = test system: E. coli BL21(DE3); assay: Cell-based assay with ClbP with LCMS, ClbP negative strain; settings: 10 μM compound, 37° C., 20 h
Outline: as §1

[4] = test system: E. coli Nissle 1917; assay: Payload release in the presence of fecal matter, ClbP positive E. coli; type: cell-based; settings: 10 μM compound, anaerobic, 37° C., 20 h, LCMS
Text: (§2) This example is representative of the methods described in Example 103. Fecal samples were subjected to metagenomic whole-genome shotgun sequencing followed by querying the dataset for the presence of the clbP gene or by attempting to amplify the gene with primers specific for it by qPCR. Samples that gave a signal below the detection limit were used in subsequent steps. The fecal sample was resuspended as a 15% (w/v) slurry in Anaerobic Phosphate Buffer Saline.
(§3) Following steps 1 and 2 as detailed in Example 98, E. coli CFT073 ATCC 700928, E. coli Nissle 1917, or E. coli BL21(DE3) were grown in liquid culture.
(§4) In an anaerobic chamber, the E. coli strains were added to the fecal samples obtained in step 1 at a dilution level calculated to represent 0, 1, 10, 50, 90, 99, or 100% of all organisms present in PRAS dilution blank on a 200 μL volume. The test compound (10 μM final concentration) was added to the mixture. The test compound was also added to a bacteria-free media control under similar conditions. The plate was sealed and incubated at 37° C. for 20 h. Under similar conditions, a standard curve of both the starting material and the payload compound was made in bacteria-free media.
(§5) After 20 h, an aliquot was tested for breakdown and release of a payload by LCMS by diluting serially to a final dilution of 1:100 first with Acetonitrile (10× dilution) and then with (1:1) Mobile Phase A-0.1% Formic Acid in Water:Mobile Phase B-0.1% Formic acid in Acetonitrile (1 OX dilution), with absolute quantification compared to the external standard curve. In an ideal case, the amount of payload released in the reaction(s) with ClbP-encoding E. coli was >75% of the theoretical maximum, and none was released in the E. coli BL21(DE3) and media-alone conditions. In an acceptable case, the amount of payload released in the reaction(s) with ClbP-encoding E. coli was 25-75% of the theoretical maximum, and <25% of the theoretical maximum was released in the E. coli BL21(DE3) and media-alone conditions. In a non-preferred case, the amount of payload released in the reactions(s) with ClbP-encoding E. coli was <25% of the theoretical maximum, and >25% of the theoretical maximum was released in the E. coli BL21(DE3) and media-alone conditions.

[5] = test system: E. coli BL21(DE3); assay: Payload release in the presence of fecal matter, ClbP negative E. coli; type: cell-based; settings: 10 μM compound, anaerobic, 37° C., 20 h, LCMS
Text: as §2, §3, §4, §5

SMILES | % Remaining in ClbP Positve Relative to Media-Only [1] | Assay 1 (SGF) (% Remaining @ 1 hours) [2] | % Remaining in ClbP Negative Relative to Media-Only [3] | Difference between the ClbP Positive and ClbP Negative release profiles [1] | % payload released in ClbP positive (Nissle 1917) at 1:1 ratio of E. coli to fecal bacteria [4] [%] | % payload released in ClbP negative (BL21 DE3) at 1:1 ratio of E. coli to fecal bacteria [5] [%]
CCCCCCCCCCCCCC(=O)N[C@H](CC(N)=O)C(=O)N[C@@H](C)C(=O)OC [Example 1, Methyl tetradecanoyl-D-asparaginyl-L-alaninate] (Myristoyl-[dN]-Ala-OMe) | + (between 25-75% compound remaining in the 20 μM WT ClbP reaction relative to the no-enzyme control) | C (>75% of the tested compound remaining) | + (between 25-75% compound remaining in the 20 μM WT ClbP reaction relative to the no-enzyme control) | – | – | –
CCCCCCCC(=O)N[C@H](CC(N)=O)C(=O)N[C@@H](C)C(=O)OC [Example 2, Methyl octanoyl-D-asparaginyl-L-alaninate] (Octanoyl-[dN]-Ala-OMe) | ++ (<25% compound remaining in the 20 μM WT ClbP reaction relative to the control) | C (>75% of the tested compound remaining) | + (between 25-75% compound remaining in the 20 μM WT ClbP reaction relative to the no-enzyme control) | – | – | –
CCCCCCCC(=O)N[C@@H](CC(N)=O)C(=O)N[C@@H](C)C(=O)OC [Example 4, Methyl octanoyl-L-asparaginyl-L-alaninate] (Octanoyl-Asn-Ala-OMe) | ++ (<25% compound remaining in the 20 μM WT ClbP reaction relative to the control) | C (>75% of the tested compound remaining) | ++ (<25% compound remaining in the 20 μM WT ClbP reaction relative to the control) | – | – | –
CCCCCCCC(=O)N[C@H](CC(N)=O)C(=O)N[C@H](C)C(=O)OC [Example 5, Methyl octanoyl-D-asparaginyl-D-alaninate] (Octanoyl-[dN]-[dA]-OMe) | ++ (<25% compound remaining in the 20 μM WT ClbP reaction relative to the control) | C (>75% of the tested compound remaining) | − (>75% compound remaining in the 20 μM WT ClbP reaction relative to the no-enzyme control) | particularly favorable difference | – | –
CCCCCCCC(=O)N[C@H](CC(N)=O)C(=O)N[C@H](C(=O)OC)C(C)C [Example 6, Methyl octanoyl-D-asparaginyl-L-valinate] (Octanoyl-[dN]-Val-OMe) | ++ (<25% compound remaining in the 20 μM WT ClbP reaction relative to the control) | C (>75% of the tested compound remaining) | + (between 25-75% compound remaining in the 20 μM WT ClbP reaction relative to the no-enzyme control) | – | – | –
CCCCCCCC(=O)N[C@H](CC(N)=O)C(=O)N[C@@H](CC(C)C)C(=O)OC [Example 7, Methyl octanoyl-D-asparaginyl-L-leucinate] (Octanoyl-[dN]-Leu-OMe) | + (between 25-75% compound remaining in the 20 μM WT ClbP reaction relative to the no-enzyme control) | C (>75% of the tested compound remaining) | + (between 25-75% compound remaining in the 20 μM WT ClbP reaction relative to the no-enzyme control) | – | – | –
CCCCCCCC(=O)N[C@H](CCC(=O)O)C(=O)N[C@@H](C)C(=O)OC [Example 9, (R)-5-(((S)-1-methoxy-1-oxopropan-2-yl)amino)-4-octanamido-5-oxopentanoic acid] (Octanoyl-[dE]-Ala-OMe) | + (between 25-75% compound remaining in the 20 μM WT ClbP reaction relative to the no-enzyme control) | C (>75% of the tested compound remaining) | − (>75% compound remaining in the 20 μM WT ClbP reaction relative to the no-enzyme control) | – | – | –
CCCCCCCC(=O)N[C@H](CCC(N)=O)C(=O)N[C@@H](C)C(=O)OC [Example 10, Methyl octanoyl-D-glutaminyl-L-alaninate] (Octanoyl-[dQ]-Ala-OMe) | + (between 25-75% compound remaining in the 20 μM WT ClbP reaction relative to the no-enzyme control) | C (>75% of the tested compound remaining) | + (between 25-75% compound remaining in the 20 μM WT ClbP reaction relative to the no-enzyme control) | – | – | –
CCCCCCCC(=O)N[C@H](CCCNC(=N)N)C(=O)N[C@@H](C)C(=O)OC [Example 11, Methyl octanoyl-D-arginyl-L-alaninate] (Octanoyl-[dR]-Ala-OMe) | + (between 25-75% compound remaining in the 20 μM WT ClbP reaction relative to the no-enzyme control) | C (>75% of the tested compound remaining) | − (>75% compound remaining in the 20 μM WT ClbP reaction relative to the no-enzyme control) | – | – | –
COC(=O)[C@H](C)NC(=O)[C@@H](CC(N)=O)NC(=O)[C@@H](C)c1ccc2cc(OC)ccc2c1 [Example 18, Methyl ((S)-2-(6-methoxynaphthalen-2-yl)propanoyl)-D-asparaginyl-L-alaninate] | + (between 25-75% compound remaining in the 20 μM WT ClbP reaction relative to the no-enzyme control) | C (>75% of the tested compound remaining) | + (between 25-75% compound remaining in the 20 μM WT ClbP reaction relative to the no-enzyme control) | – | – | –
CCCCCCCCCCCCCC(=O)N[C@H](CC(N)=O)C(=O)NCCCC(=O)OC [Example 20, Methyl (R)-4-(4-amino-4-oxo-2-tetradecanamidobutanamido)butanoate] | + (between 25-75% compound remaining in the 20 μM WT ClbP reaction relative to the no-enzyme control) | C (>75% of the tested compound remaining) | − (>75% compound remaining in the 20 μM WT ClbP reaction relative to the no-enzyme control) | – | – | –
CCCCCCCCCCCCCC(=O)N[C@H](CC(N)=O)C(=O)N[C@@H](C)CCC(=O)OC [Example 21, Methyl (S)-4-((R)-4-amino-4-oxo-2-tetradecanamidobutanamido)pentanoate] | + (between 25-75% compound remaining in the 20 μM WT ClbP reaction relative to the no-enzyme control) | C (>75% of the tested compound remaining) | − (>75% compound remaining in the 20 μM WT ClbP reaction relative to the no-enzyme control) | – | – | –
CCCCCCCCCCCCCC(=O)N[C@H](CC(N)=O)C(=O)Nc1ccc(COC)cc1 [Example 22, (R)—N1-(4-(methoxymethyl)phenyl)-2-tetradecanamidosuccinamide] | − (>75% compound remaining in the 20 μM WT ClbP reaction relative to the no-enzyme control) | C (>75% of the tested compound remaining) | − (>75% compound remaining in the 20 μM WT ClbP reaction relative to the no-enzyme control) | – | – | –
CCCCCCCCCCCCCC(=O)N[C@H](CC(N)=O)C(=O)N[C@@H](C)CCC(=O)O[C@]1(CC)C(=O)OCc2c1cc1n(c2=O)Cc2c-1nc1ccc(O)cc1c2CC [Example 35, (S)-4,11-diethyl-9-hydroxy-3,14-dioxo-3,4,12,14-tetrahydro-1H-pyrano[3′,4′:6,7]indolizino[1,2-b]quinolin-4-yl (S)-4-((R)-4-amino-4-oxo-2-tetradecanamidobutanamido)pentanoate] | + (between 25-75% compound remaining in the 20 μM WT ClbP reaction relative to the no-enzyme control) | C (>75% of the tested compound remaining) | − (>75% compound remaining in the 20 μM WT ClbP reaction relative to the no-enzyme control) | particularly favorable difference | 0.9 | 0.6
